Here are results for ten compounds from patent US20200069691A1, “HETEROCYCLIC COMPOUNDS AS HIV PROTEASE INHIBITORS” (Merck Sharp & Dohme Corp., priority 2016, published 2020).

Each structure is given as a SMILES string.

Broadly, the IC50 is the midpoint of a concentration-inhibition curve.

In this experiment the target is T1, wild-type HIV-1 protease (Human immunodeficiency virus type 1 group M subtype B, UniProt P04585).
T1 construct: Escherichia coli expressed wild-type HIV-1 protease protein
The experiment in a line: Assay for Inhibition of Microbial Expressed HIV Protease (peptide substrate cleavage, LC-MS/MS readout). In kind it is biochemical. The note with it: E. coli expressed wild-type HIV-1 protease, mean of at least two independent experiments, read-out: HIV Pr Enzyme HIV1 PR IC50. A digest of the protocol:
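Cleavage of Val-Ser-Gln-Asn-(β-naphthyl)Ala-Pro-Ile-Val (400 μM) by recombinant HIV-1 protease ([…]) ran 1 h at 30 °C after a 30 min room-temperature inhibitor preincubation in 50 mM sodium acetate pH 5.5. Product peak areas by LC-MS/MS gave inhibition; values average at least two independent runs.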
Consider `Cc1ncc2c(n1)CN(C(=O)c1cccc(CN3C(=N)NC(c4ccccc4)(c4ccccc4)C3=O)c1)C2` [Compound 290, 2-imino-3-{3-[(2-methyl-5,7-dihydro-6H-pyrrolo[3,4-d]pyrimidin-6-yl)carbonyl]benzyl}-5,5-diphenylimidazolidin-4-one], for which the concentration for half-maximal inhibition (IC50) was 36.3 nM.
Regarding `CC(C)CCC1(c2ccccc2)NC(=N)N(Cc2ccc(C(F)(F)F)c(C(=O)N3Cc4nccnc4C3)c2)C1=O` (stereo not shown) [Compound 151, 3-[3-(5,7-dihydro-6H-pyrrolo[3,4-b]pyrazin-6-ylcarbonyl)-4-(trifluoromethyl)benzyl]-2-imino-5-(3-methylbutyl)-5-phenylimidazolidin-4-one], the half-maximal inhibitory concentration (IC50) was found to be 6.62 nM.
On to `CC(C)CC[C@]1(c2ccccc2)NC(=N)N(Cc2ccc(C(F)(F)F)c(C(=O)N3Cc4nccnc4C3)c2)C1=O` [Compound 30, (5R)-3-[3-(5,7-dihydro-6H-pyrrolo[3,4-b]pyrazin-6-ylcarbonyl)-4-(trifluoromethyl)-benzyl]-2-iirrino-5-(3-methylbutyl)-5-phenylimidazolidin-4-one], for which the IC50 was determined as 3.08 nM.
In the case of `COC(=O)N1CCN(C(=O)c2cccc(CN3C(=N)NC(CC(C)C)(c4ccc(F)cc4)C3=O)c2)CC1` (stereo not shown) [Compound 288, methyl 4-[(3-{[4-(4-fluorophenyl)-2-imino-4-(2-methylpropyl)-5-oxoimidazolidin-1-yl]methyl}phenyl)carbonyl] piperazine-1-carboxylate], the IC50 was 35.3 nM.
In the case of `CC(C)CC1(c2ccccc2)NC(=N)N(Cc2cccc(C(=O)N3CCN(c4ccccn4)CC3)c2)C1=O` (stereo not shown) [Compound 321, 2-imino-5-(2-methylpropyl)-5-phenyl-3-{3-[(4-pyridin-2-ylpiperazin-1-yl)carbonyl]benzyl} imidazolidin-4-one] it was 56.8 nM.
In the case of `CC(C)CC1(c2ccccc2)NC(=N)N(Cc2cccc(C(=O)N3CCC(n4c(=O)[nH]c5nc(F)ccc54)CC3)c2)C1=O` (stereo not shown) [Compound 346, 5-fluoro-1-{1-[(3-{[2-imino-4-(2-methylpropyl)-5-oxo-4-phenylimidazolidin-1-yl]methyl}phenyl)-carbonyl]piperidin-4-yl}-1,3-dihydro-2H-imidazo[4,5-b]pyridin-2-one] it was 82.5 nM; in that of `CC(C)CCC1(c2cccc(-c3cccnc3)c2)NC(=N)N(Cc2cccc(C(=O)N3Cc4nccnc4C3)c2)C1=O` (stereo not shown) [Compound 304, 3-[3-(5,7-dihydro-6H-pyrrolo[3,4-b]pyrazin-6-ylcarbonyl)benzyl]-2-imino-5-(3-methylbutyl)-5-(3-pyridin-3-ylphenyl)imidazolidin-4-one], 45.9 nM; in that of `N=C1NC(CCC2CC2)(c2cccc(F)c2)C(=O)N1Cc1ccc(C(F)(F)F)c(C(=O)N2CCn3c(nnc3C(F)(F)F)C2)c1` (stereo not shown) [Compound 78, 5-(2-cyclopropylethyl)-5-(3-fluorophenyl)-2-imino-3-[4-(trifluoromethyl)-3-{[3-(trifluoro-methyl)-5,6-dihydro-[1,2,4]triazolo-[4,3-a]pyrazin-7(8H)-yl]carbonyl}-benzyl]imidazolidin-4-one], 10.5 nM.
`CC(C)CC[C@]1(c2ccccc2)NC(=N)N([C@H](C)c2cccc(C(=O)N3Cc4cncnc4C3)c2)C1=O` [Compound 216, 3-{(1R)-1-[3-(5,7-dihydro-6H-pyrrolo[3,4-d]pyrimidin-6-ylcarbonyl)phenyl]ethyl}-2-imino-5-(3-methylbutyl)-5-phenylimidazolidin-4-one]: the IC50 came out at 10.2 nM.
Take `C=CCOC(=O)N1CCN(C(=O)c2cc(CN3C(=N)N[C@](CCCC(F)(F)F)(c4ccc(F)cc4)C3=O)ccc2C(F)(F)F)CC1` [Compound 102, prop-2-en-1-yl 4-{[5-{[(4R)-4-(4-fluorophenyl)-2-imino-5-oxo-4-(4,4,4-trifluorobutyl)imidazolidin-1-yl]methyl}-2-(trifluoromethyl)-phenyl]carbonyl} piperazine-1-carboxylate]: the IC50 was found to be 23.2 nM.
